Test results from paper PMC6652260 (Endocrine Connections, 2019).

Assays:
[1] = test system: cultured trophoblast cells; conditions: cited from earlier work
[2] = test system: human trophoblast cell lines BeWo and HTR-8; conditions: DES at pM, BeWo and HTR-8 cells; cited from earlier work
[3] = biological target: T1, human placental HSD11B2 (Homo sapiens, UniProt P80365); assay: Human placental microsomal HSD11B2 activity assay; assay type: biochemical
T1 sequence (P80365 1-405): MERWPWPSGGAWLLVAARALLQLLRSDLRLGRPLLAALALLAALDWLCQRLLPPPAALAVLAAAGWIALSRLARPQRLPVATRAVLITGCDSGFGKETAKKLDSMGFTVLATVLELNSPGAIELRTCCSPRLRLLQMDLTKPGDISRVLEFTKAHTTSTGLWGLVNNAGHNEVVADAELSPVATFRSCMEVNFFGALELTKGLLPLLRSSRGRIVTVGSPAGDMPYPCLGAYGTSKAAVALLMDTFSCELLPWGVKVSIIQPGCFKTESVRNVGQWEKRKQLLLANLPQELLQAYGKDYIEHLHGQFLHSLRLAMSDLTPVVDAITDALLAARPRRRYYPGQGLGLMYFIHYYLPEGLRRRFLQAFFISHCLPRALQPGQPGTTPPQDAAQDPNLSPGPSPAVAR

Row | Compound | Effect on secretion of human chorionic gonadotropin [1] | Effect on human β-chorionic gonadotropin (β-hCG) secretion [2] | IC50 [3] [µM] | Mode of action versus cofactor NAD+ (Lineweaver–Burk), human HSD11B2 ([3]; cofactor NAD+ varied, human placental microsomes) | Mode of action versus steroid substrate (Lineweaver–Burk), human HSD11B2 ([3]; cortisol as the substrate, human placental microsomes) | inhibition at 100 µM ([3]; read-out: Inhibition of human placental HSD11B2 activity) [%]
1 | CC1(C)[C@@H](OC(=O)CCC(=O)O)CC[C@]2(C)[C@H]3C(=O)C=C4[C@@H]5C[C@@](C)(C(=O)O)CC[C@]5(C)CC[C@@]4(C)[C@]3(C)CC[C@@H]12 [carbenoxolone] | stimulated secretion | – | – | – | – | –
2 | CC/C(=C(/CC)c1ccc(O)cc1)c1ccc(O)cc1 [DES, Diethylstilbestrol] | – | can inhibit | 12.6 | uncompetitive inhibitor | competitive inhibitor | > 50
